Experimental data from ChEMBL document CHEMBL3046070, “New N-arylamino biquinoline derivatives: microwave-assisted synthesis and their antimicrobial activities” (2013).
≈ marks a conversion by molar mass, not a printed value.

Assays:
Assay type in all cases: functional
[1] = test system: Aspergillus fumigatus; test: Antifungal activity against Aspergillus fumigatus MTCC 3008 assessed as growth inhibition after overnight incubation by NCCLS broth microdilution method
[2] = test system: Clostridium tetani; test: Antibacterial activity against Clostridium tetani MTCC 449 assessed as growth inhibition after overnight incubation by NCCLS broth microdilution method
[3] = test system: Streptococcus pneumoniae; test: Antibacterial activity against Streptococcus pneumoniae MTCC 1936 assessed as growth inhibition after overnight incubation by NCCLS broth microdilution method
[4] = test system: Bacillus subtilis; test: Antibacterial activity against Bacillus subtilis MTCC 441 assessed as growth inhibition after overnight incubation by NCCLS broth microdilution method
[5] = test system: Salmonella typhi; test: Antibacterial activity against Salmonella enterica subsp. enterica serovar Typhi MTCC 98 assessed as growth inhibition after overnight incubation by NCCLS broth microdilution method
[6] = test system: Vibrio cholerae; test: Antibacterial activity against Vibrio cholerae MTCC 3906 assessed as growth inhibition after overnight incubation by NCCLS broth microdilution method
[7] = test system: Escherichia coli; test: Antibacterial activity against Escherichia coli MTCC 443 assessed as growth inhibition after overnight incubation by NCCLS broth microdilution method
[8] = test system: Candida albicans; test: Antifungal activity against Candida albicans MTCC 227 assessed as growth inhibition after overnight incubation by NCCLS broth microdilution method

| Compound | MIC [1] [µg/mL] | MIC [2] [µg/mL] | MIC [3] [µg/mL] | MIC [4] [µg/mL] | MIC [5] [µg/mL] | MIC [6] [µg/mL] | MIC [7] [µg/mL] | MIC [8] [µg/mL] |
| --- | --- | --- | --- | --- | --- | --- | --- | --- |
| CCOC(=O)C1=C(N)N(Nc2ccc(Cl)cc2)C2=C(C(=O)CC(C)(C)C2)C1c1cc2cc(C)ccc2nc1Cl (stereo not drawn) | > 1000 | 200 (≈ 354 µM) | 500 (≈ 884 µM) | 500 (≈ 884 µM) | 200 (≈ 354 µM) | 250 (≈ 442 µM) | 62.5 (≈ 111 µM) | 500 (≈ 884 µM) |
| CCOC(=O)C1=C(N)N(Nc2ccc(F)cc2)C2=C(C(=O)CC(C)(C)C2)C1c1cc2cc(Cl)ccc2nc1Cl (stereo not drawn) | > 1000 | 250 (≈ 439 µM) | 500 (≈ 878 µM) | 500 (≈ 878 µM) | 250 (≈ 439 µM) | 500 (≈ 878 µM) | 200 (≈ 351 µM) | 1000 (≈ 1760 µM) |
| CCOC(=O)C1=C(N)N(Nc2ccc(C)cc2)C2=C(C(=O)CC(C)(C)C2)C1c1cc2ccccc2nc1Cl (stereo not drawn) | > 1000 | 500 (≈ 942 µM) | 250 (≈ 471 µM) | 500 (≈ 942 µM) | 250 (≈ 471 µM) | 125 (≈ 235 µM) | 250 (≈ 471 µM) | > 1000 |
| CCOC(=O)C1=C(N)N(Nc2ccc(Cl)cc2)C2=C(C(=O)CC(C)(C)C2)C1c1cc2cc(OC)ccc2nc1Cl (stereo not drawn) | > 1000 | 250 (≈ 430 µM) | 250 (≈ 430 µM) | 250 (≈ 430 µM) | 100 (≈ 172 µM) | 250 (≈ 430 µM) | 100 (≈ 172 µM) | 500 (≈ 860 µM) |
| CCOC(=O)C1=C(N)N(Nc2ccccc2)C2=C(C(=O)CC(C)(C)C2)C1c1cc2cc(Cl)ccc2nc1Cl (stereo not drawn) | 250 (≈ 453 µM) | 200 (≈ 363 µM) | 100 (≈ 181 µM) | 200 (≈ 363 µM) | 250 (≈ 453 µM) | 100 (≈ 181 µM) | 125 (≈ 227 µM) | 1000 (≈ 1810 µM) |
| CCOC(=O)C1=C(N)N(Nc2ccccc2)C2=C(C(=O)CC(C)(C)C2)C1c1cc2ccccc2nc1Cl (stereo not drawn) | > 1000 | 500 (≈ 967 µM) | 200 (≈ 387 µM) | 200 (≈ 387 µM) | 200 (≈ 387 µM) | 500 (≈ 967 µM) | 50 (≈ 96.7 µM) | 250 (≈ 484 µM) |
| CCOC(=O)C1=C(N)N(Nc2ccc(Br)cc2)C2=C(C(=O)CC(C)(C)C2)C1c1cc2cc(C)ccc2nc1Cl (stereo not drawn) | 1000 (≈ 1640 µM) | 500 (≈ 820 µM) | 250 (≈ 410 µM) | 100 (≈ 164 µM) | 500 (≈ 820 µM) | 500 (≈ 820 µM) | 500 (≈ 820 µM) | 500 (≈ 820 µM) |
| O=C(O)c1cn(C2CC2)c2cc(N3CCNCC3)c(F)cc2c1=O [CIPROFLOXACIN] |  |  | 50 (≈ 151 µM) |  | 25 (≈ 75.4 µM) | 25 (≈ 75.4 µM) | 25 (≈ 75.4 µM) |  |
| CCOC(=O)C1=C(N)N(Nc2ccc(OC)cc2)C2=C(C(=O)CC(C)(C)C2)C1c1cc2cc(C)ccc2nc1Cl (stereo not drawn) | 500 (≈ 891 µM) | 250 (≈ 446 µM) | 125 (≈ 223 µM) | 250 (≈ 446 µM) | 100 (≈ 178 µM) | 250 (≈ 446 µM) | 250 (≈ 446 µM) | 250 (≈ 446 µM) |
| CCOC(=O)C1=C(N)N(Nc2ccc(C)cc2)C2=C(C(=O)CC(C)(C)C2)C1c1cc2cc(C)ccc2nc1Cl (stereo not drawn) | > 1000 | 500 (≈ 917 µM) | 250 (≈ 459 µM) | 250 (≈ 459 µM) | 500 (≈ 917 µM) | 500 (≈ 917 µM) | 250 (≈ 459 µM) | 1000 (≈ 1830 µM) |
| CCOC(=O)C1=C(N)N(Nc2ccc(OC)cc2)C2=C(C(=O)CC(C)(C)C2)C1c1cc2ccccc2nc1Cl (stereo not drawn) | 500 (≈ 914 µM) | 100 (≈ 183 µM) | 200 (≈ 366 µM) | 250 (≈ 457 µM) | 200 (≈ 366 µM) | 200 (≈ 366 µM) | 50 (≈ 91.4 µM) | 250 (≈ 457 µM) |
| CCOC(=O)C1=C(N)N(Nc2ccc(F)cc2)C2=C(C(=O)CC(C)(C)C2)C1c1cc2cc(OC)ccc2nc1Cl (stereo not drawn) | > 1000 | 250 (≈ 442 µM) | 250 (≈ 442 µM) | 200 (≈ 354 µM) | 200 (≈ 354 µM) | 250 (≈ 442 µM) | 125 (≈ 221 µM) | 1000 (≈ 1770 µM) |
| CCOC(=O)C1=C(N)N(Nc2ccc(Cl)cc2)C2=C(C(=O)CC(C)(C)C2)C1c1cc2ccccc2nc1Cl (stereo not drawn) | 250 (≈ 453 µM) | 125 (≈ 227 µM) | 200 (≈ 363 µM) | 200 (≈ 363 µM) | 250 (≈ 453 µM) | 250 (≈ 453 µM) | 200 (≈ 363 µM) | 1000 (≈ 1810 µM) |
| CCOC(=O)C1=C(N)N(Nc2ccc(Br)cc2)C2=C(C(=O)CC(C)(C)C2)C1c1cc2cc(OC)ccc2nc1Cl (stereo not drawn) | 500 (≈ 799 µM) | 200 (≈ 320 µM) | 250 (≈ 399 µM) | 250 (≈ 399 µM) | 200 (≈ 320 µM) | 200 (≈ 320 µM) | 200 (≈ 320 µM) | > 1000 |
| COC1=CC(=O)C[C@@H](C)[C@]12Oc1c(Cl)c(OC)cc(OC)c1C2=O [GRISEOFULVIN] | 100 (≈ 283 µM) |  |  |  |  |  |  | 500 (≈ 1420 µM) |
| CCOC(=O)C1=C(N)N(Nc2ccc(F)cc2)C2=C(C(=O)CC(C)(C)C2)C1c1cc2ccccc2nc1Cl (stereo not drawn) | 500 (≈ 935 µM) | 200 (≈ 374 µM) | 200 (≈ 374 µM) | 200 (≈ 374 µM) | 100 (≈ 187 µM) | 200 (≈ 374 µM) | 100 (≈ 187 µM) | 250 (≈ 467 µM) |
